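In this assay, cells in 96-well plates receive the compound at five concentrations for 48 hours. Endpoints are linearly interpolated between the surrounding concentrations. TGI marks complete inhibition of growth.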 Calls of active or inactive are those of the source. Cut-off read from the data, not from the text of the source: active = GI50 below about 0.43 µM; inactive = the rest.
Columns and labels:
Assay in all cases: growth of human tumour cells (NCI), 48 h
[1] = test system: 786-0 renal
[2] = test system: A498 renal
[3] = test system: A549 NSCLC
[4] = test system: ACHN renal
[5] = test system: BT-549 breast
[6] = test system: CAKI-1 renal
[7] = test system: CCRF-CEM leukemia
[8] = test system: COLO 205 colon
[9] = test system: DU-145 prostate
[10] = test system: EKVX NSCLC
[11] = test system: HCC-2998 colon
[12] = test system: HCT-116 colon
[13] = test system: HCT-15 colon
[14] = test system: HL-60(TB) leukemia
[15] = test system: HOP-62 NSCLC
[16] = test system: HOP-92 NSCLC
[17] = test system: HS 578T breast
[18] = test system: HT29 colon
[19] = test system: IGROV1 ovarian
[20] = test system: K-562 leukemia
[21] = test system: KM12 colon
[22] = test system: LOX IMVI melanoma
[23] = test system: M14 melanoma
[24] = test system: MALME-3M melanoma
[25] = test system: MCF7 breast
[26] = test system: MDA-MB-231 breast
[27] = test system: MDA-MB-435
[28] = test system: MDA-N
[29] = test system: MOLT-4 leukemia
[30] = test system: NCI-H226 lung
[31] = test system: NCI-H23 lung
[32] = test system: NCI-H460 lung
[33] = test system: NCI-H522 lung
[34] = test system: NCI/ADR-RES ovarian
[35] = test system: OVCAR-3 ovarian
[36] = test system: OVCAR-4 ovarian
[37] = test system: OVCAR-5 ovarian
[38] = test system: OVCAR-8 ovarian
[39] = test system: PC-3 prostate
[40] = test system: RPMI-8226 leukemia
[41] = test system: SF-268 CNS
[42] = test system: SF-295 CNS
[43] = test system: SF-539 CNS
[44] = test system: SK-MEL-2 melanoma
[45] = test system: SK-MEL-28 melanoma
[46] = test system: SK-MEL-5 melanoma
[47] = test system: SK-OV-3 ovarian
[48] = test system: SN12C renal
[49] = test system: SNB-19 CNS
[50] = test system: SNB-75 CNS
[51] = test system: SR leukemia
[52] = test system: SW-620 colon
[53] = test system: T-47D breast
[54] = test system: TK-10 renal
[55] = test system: U251 CNS
[56] = test system: UACC-257 melanoma
[57] = test system: UACC-62 melanoma
[58] = test system: UO-31 renal

COC(=O)c1cc2/c(=N/O)c3ccccc3sc2o1
TGI [1]: > 100 µM
TGI [2]: > 100 µM
TGI [3]: > 100 µM
TGI [4]: > 100 µM
TGI [5]: > 100 µM
TGI [6]: > 100 µM
TGI [7]: > 100 µM
TGI [8]: > 100 µM
TGI [9]: > 100 µM
TGI [10]: > 100 µM
TGI [11]: > 100 µM
TGI [12]: > 100 µM
TGI [13]: > 100 µM
TGI [14]: > 100 µM
TGI [15]: > 100 µM
TGI [16]: > 100 µM
TGI [17]: > 100 µM
TGI [18]: > 100 µM
TGI [19]: > 100 µM
TGI [20]: > 100 µM
TGI [21]: > 100 µM
TGI [22]: > 100 µM
TGI [23]: > 100 µM
TGI [24]: > 100 µM
TGI [25]: > 100 µM
TGI [26]: > 100 µM
TGI [27]: > 100 µM
TGI [28]: > 100 µM
TGI [29]: > 100 µM
TGI [30]: > 100 µM
TGI [31]: > 100 µM
TGI [32]: > 100 µM
TGI [33]: > 100 µM
TGI [34]: > 100 µM
TGI [35]: > 100 µM
TGI [36]: > 100 µM
TGI [37]: > 100 µM
TGI [38]: > 100 µM
TGI [39]: > 100 µM
TGI [40]: > 100 µM
TGI [41]: > 100 µM
TGI [42]: > 100 µM
TGI [43]: > 100 µM
TGI [44]: > 100 µM
TGI [45]: > 100 µM
TGI [46]: > 100 µM
TGI [47]: > 100 µM
TGI [48]: > 100 µM
TGI [49]: > 100 µM
TGI [50]: > 100 µM
TGI [51]: > 100 µM
TGI [52]: > 100 µM
TGI [53]: > 100 µM
TGI [54]: > 100 µM
TGI [55]: > 100 µM
TGI [56]: > 100 µM
TGI [57]: > 100 µM

O=c1cc(-c2ccc(O)c(O)c2-c2c(O)cc(O)c3c(=O)cc(-c4ccc(O)c(O)c4)oc23)oc2cc(O)cc(O)c12
outcome [1]: inactive
outcome [2]: inactive
outcome [3]: inactive
outcome [4]: inactive
outcome [5]: inactive
outcome [6]: inactive
outcome [7]: inactive
outcome [8]: inactive
outcome [9]: inactive
outcome [10]: inactive
outcome [11]: inactive
outcome [12]: inactive
outcome [13]: inactive
outcome [14]: inactive
outcome [15]: inactive
outcome [16]: inactive
outcome [17]: inactive
outcome [18]: inactive
outcome [19]: inactive
outcome [20]: inactive
outcome [21]: inactive
outcome [22]: inactive
outcome [23]: inactive
outcome [24]: inactive
outcome [25]: inactive
outcome [26]: inactive
outcome [27]: inactive
outcome [28]: inactive
outcome [29]: inactive
outcome [30]: inactive
outcome [31]: inactive
outcome [33]: inactive
outcome [34]: inactive
outcome [35]: inactive
outcome [36]: inactive
outcome [37]: inactive
outcome [38]: inactive
outcome [39]: inactive
outcome [40]: inactive
outcome [41]: inactive
outcome [42]: inactive
outcome [43]: inactive
outcome [44]: inactive
outcome [45]: inactive
outcome [46]: inactive
outcome [47]: inactive
outcome [48]: inactive
outcome [49]: inactive
outcome [50]: inactive
outcome [51]: inactive
outcome [52]: inactive
outcome [53]: inactive
outcome [54]: inactive
outcome [55]: inactive
outcome [56]: inactive
outcome [57]: inactive
outcome [58]: inactive

Source: PubChem BioAssay (NCI)
